Patent US5866587A, “Metalloprotease inhibitors” (Adir Et Compagnie, priority 1996, dated 1999)
Where a name gives a salt, the structure may show the parent alone.

Legend:
ovarian cancers = conditions: Becket et al., DDT 1996; cited from earlier work
guinea pig cartilage [1] = assay: Degradation of the cartilaginous matrix induced by IL-1β: degradation of collagen (OH-proline release); assay type: cell-based; conditions: IL-1β (10 mg/ml) and plasminogen (30 μg/ml), 3 days; for inhibition at 1 µM: Cavia porcellus, 72 h, 10^-6 M, read-out: collagen % protection at 10^-6 M
Experimental: (§1) The compounds of the invention were studied in a model of destruction of the cartilaginous matrix induced by IL-1β. The trials carried out on guinea pig cartilage relate:
on the one hand, to the degradation of collagen: colorimetric assay according to the Grant technique (Grant R. A. Estimation of OH-proline by the autoanalyser, J. Clin. Path. 1964, 17, 685) of the OH-proline fraction released by the tissue brought into contact, for 3 days, with IL-1β ([…]) and of plasminogen (30 μg/ml),
(§2) The compounds of the invention were studied by addition to the culture medium for the 3 days of assay. […] By way of example, the activities exerted by some compounds of the invention are the following: […]

guinea pig cartilage [2] = assay: Degradation of the cartilaginous matrix induced by IL-1β: degradation of proteoglycans (35SO4 glycosaminoglycan release); assay type: cell-based; conditions: IL-1β (10 mg/ml), 3 days; for inhibition at 30 µM: Cavia porcellus, 72 h, 3 × 10^-5 M, cartilage labeled with 35SO4, read-out: proteoglycans % protection at 3 × 10^-5M
Experimental: as §1
on the other hand, to the degradation of proteoglycans: radioisotopic measurement of the glycosaminoglycan fraction released by the tissue during the 3 days of contact with IL-1β (10 mg/mil), the cartilage having been labeled beforehand with ^35 SO4.
as §2

[3] = tested on: sections of thoracic aorta from Fischer 344 rats; assay: Angiogenesis in vitro, formation of pseudovessels in collagen gel; assay type: cell-based; conditions: Rattus norvegicus, 120 h; at 100 nM, five days of culture in serum-free medium; read-out: inhibition of formation of pseudovessels (vascular density)
Description: Sections of thoracic aorta from 8- to 12-week old male Fischer 344 rats are immersed in a collagen type I gel according to the Nicosia and Ottinetti method (1990). After five days of culture in serum-free medium, the preparations are examined under a microscope and the formation of pseudovessels is quantified in terms of vascular density after digitization and image analysis.

[4] = tested on: murine Lewis carcinoma cells (LLC); assay: Invasion in vitro, Transwell filter coated with artificial extracellular matrix; assay type: cell-based; conditions: Mus musculus, 24 h, medium with serum, read-out: inhibition of cellular invasion
Experimental: The tests of invasion are carried out according to the following procedure: murine Lewis carcinoma cells (LLC) are deposited on the top face of a Transwell filter coated with an artificial extracellular matrix and are cultured in medium with serum for 24 h. The cells are then exposed to the vital stain 3-[4,5-dimethylthiazol-2-yl]-2,5-diphenyltetrazolium bromide and they are removed from the top face of the filter. The formazan crystals present under the filter are solubilized in a concentrated mixture of sodium dodecyl sulfate and dimethylformamide. The absorption at 540 nm of the corresponding colored mixture is then used to indirectly quantify cellular invasion.

Row | SMILES | antitumor activity in clinical trials (ovarian cancers) | inhibition at 1 µM (guinea pig cartilage [1]) [%] | inhibition at 30 µM (guinea pig cartilage [2]) [%] | inhibition at 0.1 µM [3] [%] | inhibition at 1 µM [4] [%] | collagen % protection at 10^-6 M (guinea pig cartilage [1]; 1 µM) [%] | proteoglycans % protection at 3 × 10^-5M (guinea pig cartilage [2]; cartilage labeled with 35SO4, 30 µM) [%]
1 | CNC(=O)[C@H](Cc1ccccc1)NC(=O)[C@H](CC(C)C)[C@H](CSc1cccs1)C(=O)NO [BB94] | proved active on ovarian cancers |  |  |  |  |  | 
2 | COc1ccc(S(=O)(=O)N2Cc3ccsc3C[C@@H]2C(=O)NO)cc1 [Example 1, (6R)-5-(4-Methoxybenzenesulfonyl)-4,5,6,7-tetrahydrothieno[3,2-c]pyridine-6-(N-hydroxy)carboxamide] |  | 98 | 45 | 87 | 45 |  | 
3 | COc1ccc(S(=O)(=O)N2Cc3occc3C[C@@H]2C(=O)NO)cc1 [Example 28, (5R)-6-(4-Methoxybenzenesulfonyl)-4,5,6,7-tetrahydrofuro[2,3-c]pyridine-5-(N-hydroxy)carboxamide] |  | 79 | 34 | 85 | 44 |  | 
4 | COc1ccc(S(=O)(=O)N2Cc3sccc3C[C@@H]2C(=O)NO)cc1 [Example 15, (5R)-6-(4-Methoxybenzenesulfonyl)-4,5,6,7-tetrahydro-thieno[2,3-c]pyridine-5-(N-hydroxy)carboxamide] |  | 98 | 60 |  |  |  | 
5 | COc1ccc(S(=O)(=O)N2Cc3nc[nH]c3C[C@@H]2C(=O)NO)cc1 [Example 23, (6R)-5-(4-Methoxybenzenesulfonyl)-4,5,6,7-tetrahydro-imidazo[4,5-c]pyridine-6-(N-hydroxy)carboxamide Hydrochloride] |  | 88 | 24 |  |  |  | 
6 | CCCCCCCC1c2[nH]c3ccccc3c2C[C@H](C(=O)NO)N1S(=O)(=O)c1ccc(OC)cc1 (single isomer, unassigned) [Example 7] |  |  |  |  |  | 47 | 100
